Assay results taken from US5180724A, “Carboxamide amino acid heterobicyclic PAF antagonists” (British Bio-Technology Limited, priority 1991, dated 1993).

How the values were obtained:
[1] = target: T1, PAF receptor (specific receptor binding site on human platelet plasma membranes) (Homo sapiens, UniProt P25105); test: Inhibition of 3H-PAF binding to human platelet plasma membrane (receptor binding, filtration); settings: 0.5 nM 3H-PAF, 0° C., 1 hour incubation
T1 construct: from tissue; host or cells: human platelets (platelet concentrates from a hospital blood bank), lysed plasma membranes
Protocol: (§1) Compounds of general formula I inhibit PAF-induced functions in both the cellular and tissue levels by changing the PAF binding to its specific receptor site. The ability of compounds of general formula I to inhibit the binding of PAF to its specific receptor binding site on human platelet plasma membranes was measured according to Pharmacological Example 1. The ability of compounds of general formula I to reverse the hypotension caused by an infusion of PAF in rats was measured according to Pharmacology Example 2.
The inhibition of ^3 H-PAF binding to human platelet plasma membrane by compounds of general formula I was determined by isotopic labelling and filtration techniques. Platelet concentrates were obtained from a hospital blood bank. These platelet concentrates (500-2500 ml.) were centrifuged at 800 rpm for 10 minutes in a SORVALL RC3B centrifuge to remove the red blood cells present. (The word SORVALL is a trade mark.) The supernatant was subsequently centrifuged at 3,000 rpm in a SORVALL RC3B centrifuge to pellet the platelets present. […]
The assay was conducted by preparing a series of Tris-buffered solutions of the selected antagonist of predetermined concentrations. […] Each washed residue was dried under vacuum on a sampling manifold and placed into vials containing 20 ml of OPTIPHASE MP scintillation fluid and the radioactivity counted in a liquid scintillation counter. […]

[2] = test system: PAF-induced hypotension in the rat; test: Reversal of PAF-induced hypotension in anaesthetised rats; assay type: in vivo, rat (male Sprague-Dawley); settings: iv, i.v. bolus during PAF infusion 100 ng/kg/min i.v., mean blood pressure fall of 50 mmHg, read-out: ED50 (dose to cause a 50% reversal of the hypotensive PAF response)
Protocol: as §1
Male Sprague-Dawley rats (300-350 gms) were anaesthetised with a mixture of sodium pentobarbitone, 22.5 mg.kg^-1 and thiopental 62.5 mg.kg^-1. Through a midline incision in the neck, the trachea was cannulated and the animals breathed spontaneously. A carotid artery was cannulated for the measurement of blood pressure and this signal was used to trigger a rate meter to measure heart rate. Both jugular veins were cannulated: one for the infusion of PAF and the other for the bolus administration of test compounds.
PAF, 100 ng.kg^-1. min^-1 was infused i.v. until a sustained fall in mean blood pressure of 50 mmHg was achieved. […] The peak of this reversal was measured and the dose to cause a 50% reversal of the hypotensive PAF response (ED50) calculated by straight line interpolation and the results are presented in Table 2. Also presented in Table 2 is the result for a comparative example (N-cyclohexyl-N-methyl 4-(lH-imidazo[4,5-c]pyridin-1-ylmethyl)benzamide. This compound (a PAF antagonist described in EP-A-02606130) is not within the scope of the invention.

T1 sequence (P25105 whole entry): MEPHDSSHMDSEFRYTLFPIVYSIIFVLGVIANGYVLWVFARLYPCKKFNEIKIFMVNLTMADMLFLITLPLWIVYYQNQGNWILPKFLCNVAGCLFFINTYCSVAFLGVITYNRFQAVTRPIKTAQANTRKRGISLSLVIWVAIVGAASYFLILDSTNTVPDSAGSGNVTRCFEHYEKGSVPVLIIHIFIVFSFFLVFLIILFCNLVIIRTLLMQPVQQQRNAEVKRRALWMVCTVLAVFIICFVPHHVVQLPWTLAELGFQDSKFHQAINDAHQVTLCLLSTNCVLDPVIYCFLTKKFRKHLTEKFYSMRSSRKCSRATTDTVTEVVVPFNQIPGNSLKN

| Compound | IC50 [1] [µM] | ED50 [2] [µg/kg] |
| --- | --- | --- |
| CN(C(=O)c1ccc(Cn2cnc3cnccc32)cc1)C1CCCCC1 [Comparative Example, N-cyclohexyl-N-methyl 4-(lH-imidazo[4,5-c]pyridin-1-ylmethyl)benzamide, reference compound] | 10 | 150 |
| CCOC[C@H](CC(C)C)N(C)C(=O)c1ccc(Cn2c(C)nc3cnccc32)cc1 [3 (B), N-Methyl-N-L-leucinol ethyl ether 4-(lH-2-methylimidazo[4,5-c]pyridylmethyl)benzamide] |  | 6 |
| CCOC(=O)[C@H](CC(C)C)N(C)C(=O)c1ccc(Cn2c(C)nc3cnccc32)cc1 [2 (B), N-Methyl-N-L-leucinyl ethyl ester 4-(1H-2-methylimidazo[4,5-c]pyridylmethyl)benzamide] | 0.01 | 5 |
